Assays:
Format in all cases: cell-based
[1] = tested on: Streptococcus pyogenes strain FF22; test: Decrease in colony-forming units after mixing cells with salivaricin preparation; settings: partially purified preparation of titre 16; 4 h at 37° C.; exponential Todd Hewitt broth culture cells
Description: The inhibitory activity of the salivaricins was determined by measurement of the decrease with time in the number of colony-forming units (CFU) of a suspension of the sensitive indicator streptococcus (Streptococcus pyogenes strain FF22) after mixing the cells with a salivaricin preparation. Twice-washed cells from an exponential Todd Hewitt broth culture of the indicator streptococcus were resuspended in 0.067 M phosphate buffer (pH 6.5) to the original culture volume. Portions of partially purified salivaricin (titre 16 Au/ml) or of phosphate buffer (control) were then mixed with an equal volume of the washed cell suspension and incubation was continued at 37° C. Survivors were determined at intervals by plating suitable 10-fold dilutions (in cold Todd Hewitt broth) of the test and control mixtures on Columbia agar base and incubating at 37° C. for 24 h. Viable counts were expressed as the total number of CFU per ml.

Branhamella catarrhalis = test: Agar surface assay, inhibitory spectrum; settings: 1 tested; 20 ul drops of preparation of titre 16 Ua/ml; 37° C. for 18 h
Description: (§1) Salivaricin activity is titrated using an agar surface assay. Drops (20 ul) of two-fold saline dilutions of the sample are assayed against Microoccus luteus T-18 on Columbia agar base. The reciprocal of the highest dilution to produce a definite zone of inhibition of the growth of the indicator lawn is the titre in arbitrary units per ml (Au/ml) of salivaricin activity.
(§2) By contrast the partially purified preparation of salivaricin A2 of titre 16 when tested using under the same conditions killed less than 10% of strain FF22 cells. Further tests of the inhibitory spectra of partially purified salivaricin A2 and salivaricin B preparations were done by using the agar surface assay described above. Drops (20 ul) of a preparation of titre 16 Ua/ml were spotted onto lawn cultures of the test strains that had been freshly inoculated by swabbing the surface of a Columbia agar base plate with a 1/100 dilution in saline of an 18 h Todd Hewitt broth culture of that strain. Production of a definite zone of inhibited test strain growth upon incubation of these plates at 37° C. for 18 h was taken to indicate sensitivity of that strain to the salivaricin.

[2] = tested on: Corynebacterium diphtheriae; test: Agar surface assay, inhibitory spectrum; settings: 4 tested; 20 ul drops of preparation of titre 16 Ua/ml; 37° C. for 18 h
Description: as §1, §2

Escherichia coli = test: Agar surface assay, inhibitory spectrum; settings: 2 tested; 20 ul drops of preparation of titre 16 Ua/ml; 37° C. for 18 h
Description: as §1, §2

Lactobactillus casei = test: Agar surface assay, inhibitory spectrum; settings: 2 tested; 20 ul drops of preparation of titre 16 Ua/ml; 37° C. for 18 h
Description: as §1, §2

Staphylococcus aureus = test: Agar surface assay, inhibitory spectrum; settings: 4 tested; 20 ul drops of preparation of titre 16 Ua/ml; 37° C. for 18 h
Description: as §1, §2

[3] = tested on: Stomatococcus mucilagenosus; test: Agar surface assay, inhibitory spectrum; settings: 4 tested; 20 ul drops of preparation of titre 16 Ua/ml; 37° C. for 18 h
Description: as §1, §2

Streptococcus agalactiae = test: Agar surface assay, inhibitory spectrum; settings: 5 tested; 20 ul drops of preparation of titre 16 Ua/ml; 37° C. for 18 h
Description: as §1, §2

[4] = tested on: Streptococcus equisimilis; test: Agar surface assay, inhibitory spectrum; settings: 5 tested; 20 ul drops of preparation of titre 16 Ua/ml; 37° C. for 18 h
Description: as §1, §2

Streptococcus mutans = test: Agar surface assay, inhibitory spectrum; settings: 6 tested; 20 ul drops of preparation of titre 16 Ua/ml; 37° C. for 18 h
Description: as §1, §2

Streptococcus pneumoniae = test: Agar surface assay, inhibitory spectrum; settings: 4 tested; 20 ul drops of preparation of titre 16 Ua/ml; 37° C. for 18 h
Description: as §1, §2

Streptococcus pyogenes = test: Agar surface assay, inhibitory spectrum; settings: 15 tested; 20 ul drops of preparation of titre 16 Ua/ml; 37° C. for 18 h
Description: as §1, §2

Streptococcus sanguis = test: Agar surface assay, inhibitory spectrum; settings: 6 tested; 20 ul drops of preparation of titre 16 Ua/ml; 37° C. for 18 h
Description: as §1, §2

Streptococcus sobrinus = test: Agar surface assay, inhibitory spectrum; settings: 4 tested; 20 ul drops of preparation of titre 16 Ua/ml; 37° C. for 18 h
Description: as §1, §2

salivaricin A2: BLIS co-expressed by S. salivarius K12 and K30, related but not identical to salivaricin A; sequence in FIG. 3 (KRGTGWFATITDDCPNSVFVCC; listed as Streptococcus salivarius)
CFU killed [1]: less than 10% | Number of strains sensitive (Branhamella catarrhalis): 0 | Number of strains sensitive [2]: 0 | Number of strains sensitive (Escherichia coli): 0 | Number of strains sensitive (Lactobactillus casei): 1 | Number of strains sensitive (Staphylococcus aureus): 0 | Number of strains sensitive [3]: 0 | Number of strains sensitive (Streptococcus agalactiae): 0 | Number of strains sensitive [4]: 5 | Number of strains sensitive (Streptococcus mutans): 0 | Number of strains sensitive (Streptococcus pneumoniae): 1 | Number of strains sensitive (Streptococcus pyogenes): 15 | Number of strains sensitive (Streptococcus sanguis): 0 | Number of strains sensitive (Streptococcus sobrinus): 0
